As usually defined, the Tm is the temperature at which the thermal transition is half complete. A word on the inhibition: it is how much of the control response was suppressed. What is called IC50 is the concentration at which inhibition is half-maximal. Low values mean greater potency, high ones weaker potency. What is called ΔTm is the change in melting temperature against a reference sample.

The results in this text go back to ChEMBL document CHEMBL3286110, “Synthesis, cytotoxicity, DNA binding and topoisomerase II inhibition of cassiarin A derivatives” (Bioorg Med Chem Lett, 2014).

In data set [1] the test system is BT-474. Nature of the data set: Cytotoxicity against human BT474 cells assessed as cell viability at 100 uM after 3 days by MTT assay relative to control. To be noted: for viability at 100 µM: BT-474, 72 h, read-out: Activity. The data set is classed as functional. (In general: Tetrazolium assays rely on reduction of a dye to a coloured formazan, in cell work by metabolically active cells.)

For the next data set, the system named is KATO III cell. Nature of the data set: (§1) Cytotoxicity against human KATO III cells assessed as cell viability at 100 uM after 3 days by MTT assay relative to control. The data set is classed as functional.
A further data set deals with ChaGo. Nature of the data set: (§2) Cytotoxicity against human ChaGo cells assessed as cell viability at 100 uM after 3 days by MTT assay relative to control. It counts as functional.
In the next data set the test system is Ca-Ski. The experiment in a line: (§3) Cytotoxicity against human CaSki cells assessed as cell viability at 100 uM after 3 days by MTT assay relative to control. The data set is classed as functional.
Data set [2] deals with SW-620. The experiment in a line: Cytotoxicity against human SW620 cells assessed as cell viability at 100 uM after 3 days by MTT assay relative to control. The data set is classed as functional. To be noted: for viability at 100 µM: SW-620, 72 h, read-out: Activity.
Data set [3] deals with HepG2. The experiment in a line: Cytotoxicity against human HepG2 cells assessed as cell viability at 100 uM after 3 days by MTT assay relative to control. The data set is classed as functional. To be noted: for viability at 100 µM: HepG2, 72 h, read-out: Activity.
In data set [4] the test system is Calf thymus DNA. Nature of the data set: Binding affinity to calf thymus DNA assessed as melting temperature at 30 uM by thermal denaturation assay. It counts as nucleic-acid assay. The note with it: Bos taurus.
The nature of data set [5]: as §1. The data set is classed as functional. To be noted: 72 h, read-out: Activity.
Another data set deals with WI-38. Nature of the data set: Cytotoxicity against human WI38 cells at 1 to 60 uM after 3 days by MTT assay. It counts as cell-based. The note with it: wi-38, 72 h.
For data set [6], the target named is DNA topoisomerase 2-alpha (Homo sapiens) (UniProt P11388). The experiment in a line: Inhibition of human DNA topoisomerase-2-mediated decatenation of kinetoplast DNA at 30 uM after 1 hr by electrophoretic analysis relative to control.
Sequence of DNA topoisomerase 2-alpha (Homo sapiens) (P11388 whole entry): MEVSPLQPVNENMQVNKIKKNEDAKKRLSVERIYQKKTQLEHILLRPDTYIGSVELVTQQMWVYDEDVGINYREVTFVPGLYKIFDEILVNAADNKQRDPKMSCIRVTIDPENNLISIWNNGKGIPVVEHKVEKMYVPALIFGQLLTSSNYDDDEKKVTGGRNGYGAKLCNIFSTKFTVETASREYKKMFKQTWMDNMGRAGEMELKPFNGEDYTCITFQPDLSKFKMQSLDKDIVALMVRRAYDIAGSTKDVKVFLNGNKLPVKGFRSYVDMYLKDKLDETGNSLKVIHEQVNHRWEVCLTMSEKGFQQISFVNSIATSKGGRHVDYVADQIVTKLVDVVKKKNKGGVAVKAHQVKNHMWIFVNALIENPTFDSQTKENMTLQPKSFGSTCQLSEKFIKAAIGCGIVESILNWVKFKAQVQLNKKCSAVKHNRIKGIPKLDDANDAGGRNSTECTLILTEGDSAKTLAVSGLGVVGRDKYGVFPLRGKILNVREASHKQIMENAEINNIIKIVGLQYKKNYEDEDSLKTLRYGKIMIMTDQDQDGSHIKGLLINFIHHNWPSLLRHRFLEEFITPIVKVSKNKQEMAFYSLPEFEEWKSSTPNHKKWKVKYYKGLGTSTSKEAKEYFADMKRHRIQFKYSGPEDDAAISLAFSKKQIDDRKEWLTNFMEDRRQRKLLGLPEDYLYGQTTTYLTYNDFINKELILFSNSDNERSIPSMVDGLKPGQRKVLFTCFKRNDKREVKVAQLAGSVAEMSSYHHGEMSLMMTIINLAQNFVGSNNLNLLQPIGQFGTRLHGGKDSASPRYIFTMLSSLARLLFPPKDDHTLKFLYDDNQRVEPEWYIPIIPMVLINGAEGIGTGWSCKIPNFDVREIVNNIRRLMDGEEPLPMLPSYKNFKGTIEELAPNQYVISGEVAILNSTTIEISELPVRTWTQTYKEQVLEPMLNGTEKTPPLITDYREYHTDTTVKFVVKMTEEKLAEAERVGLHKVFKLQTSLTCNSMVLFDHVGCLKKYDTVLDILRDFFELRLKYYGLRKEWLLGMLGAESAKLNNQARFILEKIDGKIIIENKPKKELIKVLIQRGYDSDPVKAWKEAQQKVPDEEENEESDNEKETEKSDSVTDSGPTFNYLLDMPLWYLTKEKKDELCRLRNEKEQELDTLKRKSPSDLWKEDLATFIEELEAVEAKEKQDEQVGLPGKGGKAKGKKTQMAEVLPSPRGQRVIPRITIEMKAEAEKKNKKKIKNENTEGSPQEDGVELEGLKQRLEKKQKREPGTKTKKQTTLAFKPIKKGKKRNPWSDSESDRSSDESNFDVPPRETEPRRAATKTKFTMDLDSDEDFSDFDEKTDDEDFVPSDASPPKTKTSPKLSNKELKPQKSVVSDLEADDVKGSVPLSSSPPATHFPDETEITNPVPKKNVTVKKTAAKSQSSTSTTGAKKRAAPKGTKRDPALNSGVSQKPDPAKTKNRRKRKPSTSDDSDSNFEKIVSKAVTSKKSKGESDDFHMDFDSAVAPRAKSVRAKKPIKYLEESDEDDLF
Data set [7] can be described thus: as §2. The data set is classed as functional. The note with it: 72 h, read-out: Activity.
For data set [8], the target named is DNA topoisomerase 2-alpha (Homo sapiens) (UniProt P11388). The experiment in a line: Inhibition of human DNA topoisomerase-2-mediated decatenation of kinetoplast DNA at 10 uM after 1 hr by electrophoretic analysis relative to control.
The nature of data set [9]: Cytotoxicity against human CaSki cells after 3 days by MTT assay. It counts as functional, cell-based. To be noted: Ca-Ski, 72 h.
Data set [10] deals with DNA topoisomerase 2-alpha (Homo sapiens) (UniProt P11388). Nature of the data set: Inhibition of human DNA topoisomerase-2-mediated decatenation of kinetoplast DNA at 100 uM after 1 hr by electrophoretic analysis relative to control.
For data set [11] the target is unchanged. The experiment in a line: Inhibition of human DNA topoisomerase-2-mediated decatenation of kinetoplast DNA at 50 uM after 1 hr by electrophoretic analysis relative to control.
Data set [12] deals with SW-620. The experiment in a line: Cytotoxicity against human SW620 cells after 3 days by MTT assay. The note with it: SW-620, 72 h. The data set is classed as functional, cell-based.
Data set [13] concerns Calf thymus DNA. The experiment in a line: Binding affinity to calf thymus DNA assessed as change in melting temperature at 30 uM by thermal denaturation assay. The data set is classed as nucleic-acid assay. The note with it: Bos taurus.
For data set [14], the species on record is Bos taurus. Nature of the data set: Displacement of ethidium bromide from calf thymus DNA by Stern-Volmer plot analysis.
Data set [15] in a line: Cytotoxicity against human KATO III cells after 3 days by MTT assay. It counts as functional, cell-based, KATO III cell. The note with it: 72 h.
Data set [16] is described as follows: Cytotoxicity against human ChaGo cells after 3 days by MTT assay. It counts as functional, cell-based. The note with it: 72 h.
For data set [17], the species on record is Bos taurus. Nature of the data set: Displacement of ethidium bromide from calf thymus DNA by fluorescence spectroscopic analysis.
In data set [18] the test system is HepG2. The experiment in a line: Cytotoxicity against human HepG2 cells after 3 days by MTT assay. The data set is classed as functional, cell-based. The note with it: HepG2, 72 h.
The nature of data set [19]: as §3. To be noted: Ca-Ski, 72 h, read-out: Activity. It counts as functional.
Data set [20] concerns BT-474. The experiment in a line: Cytotoxicity against human BT474 cells after 3 days by MTT assay. To be noted: BT-474, 72 h. It counts as functional, cell-based.

The source made the active and inactive calls. No cut-off for these calls is given here. Some results are limits rather than exact numbers.

Regarding `CCCC(=O)Oc1cc2c3c(nc(C)cc3c1)C=C(C)O2`, the result with BT-474 [1], in the data set on KATO III cell, with ChaGo, in the data set on Ca-Ski, with SW-620 [2] and in the data set with HepG2 [3] was inactive.

`CC1=Cc2nc(C)cc3cc(OCCO)cc(c23)O1`: the result in the data set on BT-474 [1], with KATO III cell, with ChaGo, in the data set with Ca-Ski, with SW-620 [2] and in the data set with HepG2 [3] was inactive.

Turning to `CC1=Cc2nc(C)cc3cc(O[Se]c4ccccc4)cc(c23)O1`, in the data set with Calf thymus DNA [4], the midpoint of thermal melting (Tm) is 70 °C. For the same compound, the viability at 100 µM (with BT-474 [1]; in [5]; in [7]; in the data set on SW-620 [2]; in the data set on HepG2 [3]) was over 20% each time. Also, in the data set on WI-38, the Activity result is recorded as “Non-toxic”. For the same compound, the inhibition was 75.7% in [6], 31.5% in data set [8], over 95% in data set [10] and 95.7% in data set [11]. 29.7 µM corresponded to half-maximal inhibition in data set [9] (IC50).

Consider `CC1=Cc2nc(C)cc3cc(OCCN(C)C)cc(c23)O1`, for which, in the data set with Calf thymus DNA [4], the Tm is over 86 °C. Moreover, in the data set with BT-474 [1], the viability at 100 µM is over 20%. Moreover, the Activity result in the data set with WI-38 is “Non-toxic”. The half-maximal inhibitory concentration (IC50) in the data set on SW-620 [12] is 9.85 µM; in data set [15], 9.82 µM; in data set [16], 29.5 µM; in data set [9] it was 30.2 µM; with HepG2 [18], 10.1 µM. Besides, in the data set on Calf thymus DNA [13], the ΔTm was over 15.3 °C. The compound further gave a KSV in the data set listed under Bos taurus [14] of 2.1 ×10⁴ /M. Also, in [10], the inhibition turned out to be 30.1%. In addition, the Kapp in the data set listed under Bos taurus [17] worked out at 2.1 ×10⁶ /M.

`CC1=Cc2nc(C)cc3cc(OC(=O)c4ccc([N+](=O)[O-])cc4)cc(c23)O1`: the outcome in the data set with BT-474 [1], in the data set with KATO III cell, in the data set with ChaGo, in the data set with Ca-Ski, with SW-620 [2] and with HepG2 [3] was inactive.

Consider `CCC(=O)Oc1cc2c3c(nc(C)cc3c1)C=C(C)O2`, for which the outcome in the data set with BT-474 [1], with KATO III cell, with ChaGo, with Ca-Ski, with SW-620 [2] and with HepG2 [3] was inactive.

`CC1=Cc2nc(C)cc3cc(O)cc(c23)O1` [CASSIARIN A]: in the data set on Calf thymus DNA [4], the midpoint of thermal melting (Tm) stood at 70.7 °C. Moreover, the viability at 100 µM (with BT-474 [1]; in data set [5]; in [7]; in [19]; in the data set with SW-620 [2]; in the data set on HepG2 [3]) was over 20% in each case.

As to `CCCCC(=O)Oc1cc2c3c(nc(C)cc3c1)C=C(C)O2`, the result in the data set on BT-474 [1], with KATO III cell, in the data set with ChaGo, in the data set with Ca-Ski, in the data set on SW-620 [2] and in the data set with HepG2 [3] was inactive.

With `CN(C)CCN1C(=O)c2cccc3cc(N)cc(c23)C1=O` [AMONAFIDE], the Tm in the data set on Calf thymus DNA [4] amounted to 78.9 °C. The Activity result in the data set with WI-38 is “Toxic”. Also, the IC50 came to 0.32 µM in the data set with SW-620 [12]; 9.24 µM in data set [15]; 1.05 µM in data set [16]; 9.96 µM in [9]; 37.8 µM with BT-474 [20]; 1.71 µM with HepG2 [18]. The thermal shift (ΔTm) in the data set on Calf thymus DNA [13] is 8.2 °C. In addition, in data set [10], the inhibition came to 61.8%.

In the case of `CC1=Cc2nc(C)cc3cc(OC(=O)CCCBr)cc(c23)O1`, the outcome in the data set on BT-474 [1], in the data set on KATO III cell, in the data set with ChaGo, in the data set on Ca-Ski, in the data set with SW-620 [2] and with HepG2 [3] was inactive.

Turning to `CC1=Cc2nc(C)cc3cc(OC(=O)c4ccc(C)cc4)cc(c23)O1`, the outcome in the data set on BT-474 [1], with KATO III cell, with ChaGo, with Ca-Ski, in the data set with SW-620 [2] and in the data set on HepG2 [3] was inactive.

On to `CC1=Cc2nc(C)cc3cc(OC(=O)c4ccc(F)cc4)cc(c23)O1`, for which the result in the data set with BT-474 [1], in the data set with KATO III cell, in the data set with ChaGo, with Ca-Ski, in the data set on SW-620 [2] and in the data set with HepG2 [3] was inactive.

On to `CC1=Cc2nc(C)cc3cc(OCCOCCO)cc(c23)O1`, for which the Tm with Calf thymus DNA [4] turned out to be 75.7 °C. The viability at 100 µM (with BT-474 [1]; in data set [7]; in data set [19]; in the data set with SW-620 [2]) was over 20% throughout. In addition, the Activity entry in the data set with WI-38 was “Non-toxic”. In addition, the ΔTm in the data set on Calf thymus DNA [13] was determined as 4.8 °C. The same compound yielded a KSV in the data set listed under Bos taurus [14] of 4.3 ×10³ /M. For the same compound, the IC50 in [15] came out at 10.1 µM; with HepG2 [18], 29.8 µM. The inhibition entry in data set [10] was “inactive”.

As to `CC1=Cc2nc(C)cc3cc(OC(=O)c4ccc(Cl)cc4)cc(c23)O1`, the outcome in the data set on BT-474 [1], in the data set on KATO III cell, with ChaGo, in the data set on Ca-Ski, in the data set with SW-620 [2] and in the data set on HepG2 [3] was inactive.
